Results reported in ChEMBL document CHEMBL5325505, “Discovery of chiral 1,4-diarylazetidin-2-one-based hydroxamic acid derivatives as novel tubulin polymerization inhibitors with histone deacetylase inhibitory activity” (Bioorg Med Chem, 2023).
The source made the active and inactive calls. The calls are words filed in the database; no cut-off is given here.

Tests used:
[1] = tested on: BE(2)-C; assay: Upregulation of acetylated SMC3 expression in human BE2C cells by Western blot analysis; type: functional, cell-based; conditions: dose 25-100 nM
[2] = biological target: Tubulin (Sus scrofa) (UniProt P02554+P02550); assay: (§1) Inhibition of tubulin polymerization of pig brain by absorbance based assay; conditions: dose 0.4-12 µM
Chain of Tubulin (Sus scrofa) (P02550 whole entry, looked up): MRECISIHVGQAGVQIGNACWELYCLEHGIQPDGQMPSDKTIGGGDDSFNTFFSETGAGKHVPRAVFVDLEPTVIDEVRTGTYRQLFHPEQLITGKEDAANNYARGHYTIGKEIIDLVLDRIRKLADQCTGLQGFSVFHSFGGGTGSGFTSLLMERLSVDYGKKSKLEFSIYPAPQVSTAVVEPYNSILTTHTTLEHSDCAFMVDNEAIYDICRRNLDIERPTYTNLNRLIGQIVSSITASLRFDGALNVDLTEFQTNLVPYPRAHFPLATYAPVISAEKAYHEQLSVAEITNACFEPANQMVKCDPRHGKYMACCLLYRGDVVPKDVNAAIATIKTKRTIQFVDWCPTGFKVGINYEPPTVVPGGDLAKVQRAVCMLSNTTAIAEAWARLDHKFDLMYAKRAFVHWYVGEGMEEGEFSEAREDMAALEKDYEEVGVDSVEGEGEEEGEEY
Chain of Tubulin (Sus scrofa) (P02554 whole entry, looked up): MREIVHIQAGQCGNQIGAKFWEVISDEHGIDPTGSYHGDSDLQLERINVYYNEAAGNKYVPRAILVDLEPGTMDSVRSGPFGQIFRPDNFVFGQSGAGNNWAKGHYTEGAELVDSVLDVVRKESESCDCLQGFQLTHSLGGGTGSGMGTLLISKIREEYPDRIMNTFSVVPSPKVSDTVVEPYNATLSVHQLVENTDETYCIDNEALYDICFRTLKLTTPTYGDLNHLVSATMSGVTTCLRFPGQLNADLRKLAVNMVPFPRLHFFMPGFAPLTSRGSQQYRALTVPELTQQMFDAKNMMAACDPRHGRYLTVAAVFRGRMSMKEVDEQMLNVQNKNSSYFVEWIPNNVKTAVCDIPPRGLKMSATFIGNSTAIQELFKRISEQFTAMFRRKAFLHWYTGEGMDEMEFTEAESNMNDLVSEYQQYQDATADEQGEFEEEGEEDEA

[3] = biological target: Tubulin (Sus scrofa, UniProt P02554+P02550); assay: as §1
[4] = tested on: BE(2)-C; assay: Antiproliferative activity against human BE2C cells incubated for 48 hrs by MTT assay; type: functional, cell-based
[5] = tested on: BE(2)-C; assay: Induction of apoptosis in human BE2C cells assessed as early apoptotic cells at 100 nM incubated for 48 hrs by annexin V-FITC/PI staining based flow cytometry (reference value: 4.28 %); type: functional
[6] = biological target: T1, Tubulin (Homo sapiens) (UniProt P68371+Q9H4B7+P0DPH7+P68366+Q13509+Q71U36+P04350+Q3ZCM7+P07437+P68363+Q9BQE3+Q6PEY2+Q13885+Q9BVA1+Q9BUF5); assay: Inhibition of tubulin polymerization in human BE2C cells assessed as decrease in tubulin density at 25 to 100 nM incubated for 24 hrs by immunofluorescence based microscopy; type: cell-based; conditions: dose 25-100 nM
[7] = tested on: BE(2)-C; assay: Induction of cell cycle arrest in human BE2C cells assessed as increase in cyclin B1 expression by Western blot analysis; type: functional, cell-based; conditions: dose 12.5-50 nM
[8] = biological target: T1, Tubulin (Homo sapiens); assay: Inhibition of tubulin polymerization in human BE2C cells assessed as disruption of fibrous microtubule network at 25 to 100 nM incubated for 24 hrs by immunofluorescence based microscopy; type: cell-based; conditions: dose 25-100 nM
[9] = tested on: BE(2)-C; assay: Upregulation of Bax expression in human BE2C cells at 25 to 100 nM by Western blot analysis; type: functional, cell-based; conditions: dose 25-100 nM
[10] = tested on: A549; assay: Antiproliferative activity against human A549 cells incubated for 48 hrs by MTT assay; type: functional, cell-based; conditions: A549, 48 h
[11] = tested on: BE(2)-C; assay: Upregulation of acetylated H3 expression in human BE2C cells by Western blot analysis; type: functional, cell-based; conditions: dose 25-100 nM
[12] = Metabolic stability in human liver microsomes assessed as half life; type: ADME, Microsome
[13] = biological target: Histone deacetylase 1 (Homo sapiens, UniProt Q13547); assay: Inhibition of HDAC1 (unknown origin)
Chain of Histone deacetylase 1 (Q13547 whole entry): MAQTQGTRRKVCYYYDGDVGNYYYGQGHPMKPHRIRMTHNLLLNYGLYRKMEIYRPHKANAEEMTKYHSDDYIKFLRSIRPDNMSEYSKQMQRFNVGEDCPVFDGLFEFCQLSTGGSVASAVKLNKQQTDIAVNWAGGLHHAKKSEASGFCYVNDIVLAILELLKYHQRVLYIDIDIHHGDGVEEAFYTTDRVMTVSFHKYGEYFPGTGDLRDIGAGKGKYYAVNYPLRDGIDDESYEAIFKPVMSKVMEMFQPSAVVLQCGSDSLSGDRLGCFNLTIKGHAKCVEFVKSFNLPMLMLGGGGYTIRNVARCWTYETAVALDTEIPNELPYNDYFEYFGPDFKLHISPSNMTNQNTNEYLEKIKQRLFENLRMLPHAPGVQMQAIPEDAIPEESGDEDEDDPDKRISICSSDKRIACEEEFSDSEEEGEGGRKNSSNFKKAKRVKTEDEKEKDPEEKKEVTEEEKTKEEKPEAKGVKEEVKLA

[14] = tested on: BE(2)-C; assay: Induction of apoptosis in human BE2C cells assessed as late apoptotic cells at 50 nM incubated for 48 hrs by annexin V-FITC/PI staining based flow cytometry (reference value: 9.99 %); type: functional
[15] = tested on: BE(2)-C; assay: Upregulation of cleaved PARP-1 expression in human BE2C cells at 25 to 100 nM by Western blot analysis; type: functional, cell-based; conditions: dose 25-100 nM
[16] = tested on: BE(2)-C; assay: Induction of apoptosis in human BE2C cells assessed as necrotic cells at 50 nM incubated for 48 hrs by annexin V-FITC/PI staining based flow cytometry (reference value: 3.57 %); type: functional
[17] = Metabolic stability in human liver microsomes assessed as compound remaining incubated for 5 mins; type: ADME, Microsome; conditions: read-out: Stability
[18] = Metabolic stability in human liver microsomes assessed as intrinsic clearance; type: ADME, Microsome; conditions: read-out: CLH
[19] = Metabolic stability in human liver microsomes assessed as compound remaining incubated for 10 mins; type: ADME, Microsome; conditions: read-out: Stability
[20] = Toxicity in nude mouse xenografted with human BE2C cells assessed as body weight loss at 25 mg/kg, ip treated for every 3 days; type: organism-based; conditions: in vivo, 72 h, time 3 day
[21] = tested on: BE(2)-C; assay: Induction of apoptosis in human BE2C cells assessed as viable cells at 50 nM incubated for 48 hrs by annexin V-FITC/PI staining based flow cytometry (reference value: 82.16 %); type: functional; conditions: read-out: Activity
[22] = tested on: BE(2)-C; assay: Induction of cell cycle arrest in human BE2C cells assessed as accumulation at G2/M phase at 100 nM incubated for 24 hrs by RNase/PI staining based flow cytometry (reference value: 31 %); type: functional
[23] = tested on: BE(2)-C; assay: Induction of apoptosis in human BE2C cells assessed as necrotic cells at 100 nM incubated for 48 hrs by annexin V-FITC/PI staining based flow cytometry (reference value: 3.57 %); type: functional

inhibition [2]: Dose-Dependent Effect
IC50 [3]: 5400 nM
inhibition [6]: Active
inhibition [8]: Active
IC50 [10]: 53 nM
t1/2 [12]: 1.15 h
IC50 [13]: 155 nM
remaining at 5 min [17]: 89.4%
CLint scaled [18]: 18.1 mL/min/kg
remaining at 10 min [19]: 80%
SMILES: COc1ccc([C@H]2[C@H](COC(=O)c3ccc(C(=O)NO)cc3)C(=O)N2c2cc(OC)c(OC)c(OC)c2)cc1O
Activity [1]: Dose-Dependent Effect
IC50 [4]: 17 nM
Activity [5]: 17.27%
Activity [7]: Dose-Dependent Effect
Activity [9]: Active
Activity [11]: Dose-Dependent Effect
Activity [14]: 29.09%
Activity [15]: Active
Activity [16]: 8.53%
Activity [20]: Non-Toxic
viability at 0.05 µM [21]: 50.2%
Activity [22]: ~77%
Activity [23]: 9.54%
